The target of one data set is T1, human BLT1 (Homo sapiens, UniProt Q15722).
T1 construct: expressed in transfected cells; host or cells: CHO cells
The data set is described as follows: LTB4-induced increase in intracellular calcium ion concentration in CHO cells expressing human BLT1 (Fluo-3, Flexstation). It counts as cell-based. Particulars: CHO cells with human BLT1; LTB4 100 nM final; compound 10 μM final. As for the experimental part:
(§1) CHO cells habouring a gene encoding human BLT1 or human BLT2 and functionally expressing the receptor were seeded in a 96 well plate at 4×10^4 cells/well, and cultured at 37° C. for 60 min. The culture supernatant was removed and a loading buffer (100 μl) containing 4 μM Fluo-3 (manufactured by Dojindo), 0.04% pluoronic acid (manufactured by Sigma) and 1% serum was added. The mixture was culture at 37° C. for 30 min to introduce Fluo-3 into the cells. After culture, the cells were washed with a buffer, and a buffer containing various compounds (10 μM (final concentration)) was added, and then 100 nM (final concentration) of LTB4 was added. Changes in the intracellular calcium ion concentration were measured with Flexstation (manufactured by Molecular Devices Corporation) as increase in the fluorescence intensity (area under a curve in a time-course graph of fluorescence intensity in 10 min measurement). As a positive control of BLT1 and BLT2 antagonists, ZK158252 was used.
On the technique in general: Calcium flux is commonly read through the fluorescence of an indicator in the cells.

Another data set concerns the target T2, human BLT2 (Homo sapiens, UniProt Q9NPC1).
T2 construct: expressed in transfected cells; host or cells: CHO cells
T2 sequence (Q9NPC1 1-358): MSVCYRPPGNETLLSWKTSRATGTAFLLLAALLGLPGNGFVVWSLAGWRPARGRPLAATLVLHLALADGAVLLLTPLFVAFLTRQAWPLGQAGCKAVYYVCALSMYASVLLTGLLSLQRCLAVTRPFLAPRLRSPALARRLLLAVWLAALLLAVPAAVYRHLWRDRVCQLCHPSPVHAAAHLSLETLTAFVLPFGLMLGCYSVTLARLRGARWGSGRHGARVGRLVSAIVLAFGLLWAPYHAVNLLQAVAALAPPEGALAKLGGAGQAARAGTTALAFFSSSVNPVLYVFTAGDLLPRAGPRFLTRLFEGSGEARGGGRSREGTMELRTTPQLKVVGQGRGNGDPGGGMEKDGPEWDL
The data set is described as follows: LTB4-induced increase in intracellular calcium ion concentration in CHO cells expressing human BLT2 (Fluo-3, Flexstation). It counts as cell-based. Particulars: LTB4 100 nM final; for Suppressive effect on increase in intracellular calcium ion concentration compared with ZK158252 (in words): compound 10 μM final. As for the experimental part:
as §1

Another data set concerns LTB4 receptor. In words: TXB2 release from guinea pig eosinophils stimulated with LTB4 (LTB4 receptor antagonist activity). The data set is classed as cell-based. Particulars: 10^−3 M test compound (37.5 μl) added to 300 μl cell suspension, then 10^−7 M LTB4 (37.5 μl), 37° C. 15 min, positive control 100, negative control 0, N.D. = TXB2 concentration at measurement limit or less.

Molecules are shown by their SMILES.

T1 sequence (Q15722 whole entry): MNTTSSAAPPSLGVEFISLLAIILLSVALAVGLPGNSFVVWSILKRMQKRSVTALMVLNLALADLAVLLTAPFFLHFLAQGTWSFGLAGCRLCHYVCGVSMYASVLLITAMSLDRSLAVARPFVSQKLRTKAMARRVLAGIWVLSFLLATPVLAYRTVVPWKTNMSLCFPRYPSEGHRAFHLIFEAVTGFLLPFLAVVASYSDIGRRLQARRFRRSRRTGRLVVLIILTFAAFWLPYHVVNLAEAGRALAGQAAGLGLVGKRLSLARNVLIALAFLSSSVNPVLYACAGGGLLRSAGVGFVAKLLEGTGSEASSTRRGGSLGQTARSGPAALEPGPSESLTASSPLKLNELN

On to `O=C(O)CCC/C=C1\CCCCC1/C=C/C=C/C(O)C1(CC#Cc2ccccc2)CCC1` (stereo not shown) [ZK158252, reference compound], for which the “Suppression of increase in intracellular calcium ion concentration due to LTB4 stimulation (in words)” value on human BLT1 is listed as “significantly suppressed”; on human BLT2 (CHO cells with human BLT2, positive control antagonist) it was “significantly suppressed”.

In turn, `CCOC(=O)CCCOc1cccc2cc(/C(C)=C/C(=O)N3CCOCC3)oc12` [Example 30, Ethyl (E)-4-[2-(1-methyl-3-morpholino-3-oxo-1-propenyl)benzofuran-7-yloxy]butyrate] registered a melting point of 90 to 94.8 °C. The “Amount of TXB2 release (%)” value in the data set on LTB4 receptor is on record as 0.086%. On human BLT2, the “Suppressive effect on increase in intracellular calcium ion concentration compared with ZK158252 (in words)” value was “almost of the same level as or not less than that by ZK158252”.

In turn, `CCOC(=O)CCCOc1cccc2cc(/C(C)=C\C(=O)Nc3ccc(OC)c(OC)c3)oc12` [Example 46, Ethyl (Z)-4-{2-[2-(3,4-dimethoxyphenylcarbamoyl)-1-methylvinyl]benzofuran-7-yloxy}butyrate] yielded a melting point of 101.5 to 105 °C. The “Amount of TXB2 release (%)” value in the data set on LTB4 receptor came to 45.62%. Also, the “Suppressive effect on increase in intracellular calcium ion concentration compared with ZK158252 (in words)” value at human BLT2 is given as “almost of the same level as or not less than that by ZK158252”.

In turn, `COc1cccc2cc(/C(Cl)=C/C=C/C(=O)N3CCCCC3)oc12` [Example 144, (2E,4Z)-5-chloro-5-(7-methoxybenzofuran-2-yl)-1-piperidin-1-ylpenta-2,4-dien-1-one] registered a melting point of 142.2 to 144.4 °C. The “Suppressive effect on increase in intracellular calcium ion concentration compared with ZK158252 (in words)” value at human BLT2 is listed as “almost of the same level as or not less than that by ZK158252”.

In the case of `C/C(O)=C(\C#N)C(=O)Nc1c(C(=O)c2ccc(Cl)cc2)oc2ccc(Br)cc12` [Example 98, (Z)-N-[5-bromo-2-(4-chlorobenzoyl)benzofuran-3-yl]-2-cyano-3-hydroxy-2-butenamide], the melting point lay within 263.3 to 265.3 °C. Also, at human BLT2, the “Suppressive effect on increase in intracellular calcium ion concentration compared with ZK158252 (in words)” value is “almost of the same level as or not less than that by ZK158252”.

The compound `COc1cccc(NC(=O)/C=C(\C)c2cc3cccc(OCCCC(=O)O)c3o2)c1` [Example 29, (E)-4-{2-[2-(3-methoxyphenylcarbamoyl)-1-methylvinyl]benzofuran-7-yloxy}butyric acid] yielded a melting point of 155.5 to 157.5 °C. For the same compound, the “Amount of TXB2 release (%)” value in the data set on LTB4 receptor was −0.19%. Besides, the “Suppressive effect on increase in intracellular calcium ion concentration compared with ZK158252 (in words)” value on human BLT2 is given as “almost of the same level as or not less than that by ZK158252”.

`CCOC(=O)CCCOc1cccc2cc(/C(C)=C/C(=O)NCCc3ccc(OC)c(OC)c3)oc12` [Example 49, Ethyl (E)-4-(2-{2-[2-(3,4-dimethoxyphenyl)ethylcarbamoyl]-1-methylvinyl}benzofuran-7-yloxy)butyrate] returned a melting point of 114 to 115.5 °C. Moreover, the “Amount of TXB2 release (%)” value in the data set with LTB4 receptor is on record as 2.37%. For the same compound, on human BLT2, the “Suppressive effect on increase in intracellular calcium ion concentration compared with ZK158252 (in words)” value was “almost of the same level as or not less than that by ZK158252”.

Take `COc1ccc(NC(=O)/C=C/c2oc3ccc(OC)cc3c2-c2ccc(Cl)cc2)cc1` [Example 141, (E)-3-[3-(4-chlorophenyl)-5-methoxybenzofuran-2-yl]-N-(4-methoxyphenyl)acrylamide]: the melting point was in the range of 194 to 195.1 °C. On human BLT2, the “Suppressive effect on increase in intracellular calcium ion concentration compared with ZK158252 (in words)” value was “almost of the same level as or not less than that by ZK158252”.

Consider `CCN(CC)C(=O)/C=C(\C)c1cc2cccc(OC(C)C)c2o1` [Example 33, (E)-3-(7-isopropoxybenzofuran-2-yl)-N,N-diethyl-2-butenamide], for which the “Amount of TXB2 release (%)” value in the data set with LTB4 receptor is listed as −0.199%. Further, the “Suppressive effect on increase in intracellular calcium ion concentration compared with ZK158252 (in words)” value at human BLT2 is given as “almost of the same level as or not less than that by ZK158252”.

By melting point is commonly meant the temperature of the solid-liquid transition.

(Values after patent US7638540B2, “Benzofuran compound and medicinal composition containing the same” (The New Industry Research Organization, priority 2003, dated 2009).)
